Assay results: patent US9249035B2, “Method and system for treating water in order to reduce its endocrine disrupting effect by means of a living organism” (Veolia Water Solutions & Technologies Support, priority 2012, dated 2016)

Test system: larvae of genetically modified amphibians
Test: Calibration test: fluorescence of genetically modified amphibian larvae exposed to growing estrogen concentrations
Format: in vivo
Details: FIG. 3
Protocol: A test of calibration of a plant to implement the method according to the invention was carried in order to determine an acceptable threshold value of endocrine disruptors in the treated water. This calibration test also makes it possible to distinguish the natural fluorescence of water and the basal fluorescence of genetically modified aquatic organisms, related to the normal functioning of the genes, from the fluorescence emitted by the same organisms when they detect the presence of an endocrine disrupting and/or toxic and/or genotoxic pollutant. The fluorescence of water and the basal fluorescence of the genetically modified aquatic organisms can be likened to background noise which must be evaluated in order to deduct it from the signal measured in the presence of a pollutant.
The disruptor chosen for example is estrogen which is found in urban wastewater. […] These concentrations have been related to measured intensities of fluorescence.
From a reading of this graph, it can observed that amphibian larvae are sensitive to very low doses of estrogen such as ethinyl-oestradiol (EE2) (2.5×10^−10 mol/L) and emit a detectable and quantifiable intensity of fluorescence. […] This concentration is related with the measured intensity of fluorescence. […]

Substance: ethinyl-oestradiol
- estrogen concentration leading to a physiological reversal: ≥ 2×10^−9 mol/L
- very low dose at which amphibian larvae emit a detectable and quantifiable intensity of fluorescence: 2.5e-10 mol/L
